Data on 14 compounds can be found in patent US7476672B2, “Acetylenic compounds useful in treating inflammatory disorders” (Janssen Pharmaceutica N.V., priority 2002, dated 2009).

As a reminder, the IC50 is the concentration that gives 50% inhibition. Low readings indicate higher potency, high ones lower potency.

In the experiment the target is T1, NADPH-oxidase (Homo sapiens, UniProt P04839).
T1 construct: endogenous in cells; host or cells: human neutrophils isolated from buffy coat
T1 sequence (P04839 1-570): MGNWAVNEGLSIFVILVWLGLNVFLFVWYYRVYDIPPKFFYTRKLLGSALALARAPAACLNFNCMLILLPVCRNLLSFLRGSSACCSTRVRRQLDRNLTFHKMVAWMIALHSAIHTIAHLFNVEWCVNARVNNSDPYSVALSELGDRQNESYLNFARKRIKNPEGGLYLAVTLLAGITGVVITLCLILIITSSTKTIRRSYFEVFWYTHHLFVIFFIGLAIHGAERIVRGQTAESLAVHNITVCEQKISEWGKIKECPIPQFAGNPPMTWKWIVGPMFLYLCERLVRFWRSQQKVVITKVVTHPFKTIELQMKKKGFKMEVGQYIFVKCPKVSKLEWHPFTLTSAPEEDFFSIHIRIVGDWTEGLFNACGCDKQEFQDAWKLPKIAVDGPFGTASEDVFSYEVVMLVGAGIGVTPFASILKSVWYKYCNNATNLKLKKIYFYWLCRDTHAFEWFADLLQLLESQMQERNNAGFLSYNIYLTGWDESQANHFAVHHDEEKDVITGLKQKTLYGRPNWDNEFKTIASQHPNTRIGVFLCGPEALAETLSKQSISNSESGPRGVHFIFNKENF
Briefly: Oxidase Inhibition Assay (PMA-stimulated superoxide-mediated reduction of Cytochrome c, whole cells). Format: cell-based. To be noted: human neutrophils, PMA 0.5 μM, absorbance at 550 nm. As to the method:
Whole cells (human neutrophils) are incubated with a pro-inflammatory agonist phorbol myristate acetate (PMA) in the presence or absence of test compound to measure the superoxide-mediated reduction of Cytochrome c at 550 nm. Inhibition of the oxidase is determined by a decreased absorbance at 550 nm, in response to test compound, relative to the absorbance seen with a vehicle control.
The buffy coat from one unit of blood is split evenly into four 50 mL tubes. To each tube 30 mL 3% Dextran (in 0.9% NaCl) is added and the tubes are inverted to mix. Tubes are allowed to sit undisturbed for 25 minutes. The resulting supernatant is recovered into four fresh tubes and centrifuged for 10 minutes at 600×g, 4° C. The supernatant is discarded and pellets are resuspended in 35 mL 0.9% saline. 10 mL Ficoll-Paque PLUS (Pharmacia Biotech AB) is layered beneath the cell suspension and centrifuged at 600×g for 40 minutes at room temperature. The supernatant is again discarded and tubes are tapped to loosen the resulting pellets. 20 mL 0.2% ice cold saline is added for 30 seconds followed by 20 mL 1.6% ice cold saline to lyse the remaining erythrocytes in the pellets. The pellets are centrifuged for 10 minutes at 600×g, 4° C., and the supernatant is discarded. The neutrophil pellets are resuspended in HBSS-glucose buffer (1 mg/mL), adding 2.5 mL to each tube for a total volume of 10 mL. The cell suspension is then counted on a hemocytometer.
The cell suspension is diluted to a concentration of 5×10^6/mL in HBSS-glucose and treated with 1 μg/mL Cytochalasin B (5 mg/mL DMSO) for 10 minutes at 37° C. in a shaking water bath. Cells are diluted to 6×10^5 cells/mL in 92 μM Cytochrome C for a final concentration of 5×10^4 cells/well.
The NADPH-oxidase assay is run on a Biomek 2000 workstation. The workstation adds 2.5 μL compound per well from source plates plus 12.5 μL per well 4 μM PMA (agonist). This volume is brought up to 100 μL total per well in the assay plates upon the addition of the prepared cells (85 μL). The final concentration of drug is 25 μM and PMA is 0.5 μM under these conditions.
The QC curve is a dose-response curve (from about 31.25 nM to about 4000 nM) for competitive binding against a known oxidase inhibitor such as DPI (diphenylene iodonium chloride). The format used for each compound tested is as follows:
The plates are incubated for 1 hour at 37° C. without CO2. The plates are then incubated at room temperature for 30 minutes and the absorbance is read at 550 nm.
As to `Cc1cc(C#Cc2ccc(Cl)cc2)ccc1OCC(C)NCc1ccc(CN)cc1` (centres unmarked) [Compound 1, N-[2-[4-[(4-chlorophenyl)ethynyl]-2-methylphenoxy]-1-methylethyl]-1,4-benzenedimethanamine], the IC50 came to 700 nM.
`CCCNCc1ccc(CNCCOc2ccc(C#Cc3ccc(Cl)cc3)cc2)cc1` [Compound 2, N^1-[2-[4-[(4-chlorophenyl)ethynyl]phenoxy]ethyl]-N^4-propyl-1,4-benzenedimethanamine]: the half-maximal inhibitory concentration (IC50) was determined as 2070 nM.
`CCCNCc1ccc(CNCCOc2ccc(C#Cc3ccc(Cl)cc3)cc2C)cc1` [Compound 3, N^1-[2-[4-[(4-chlorophenyl)ethynyl]-2-methylphenoxy]ethyl]-N^4-propyl-1,4-benzenedimethanamine] came in with an IC50 of 1380 nM.
In turn, `CC(C)NCc1ccc(CNCCOc2ccc(C#Cc3ccc(Cl)cc3)cc2)cc1` [Compound 4, N^1-[2-[4-[(4-chlorophenyl)ethynyl]phenoxy]ethyl]-N^4-(1-methylethyl)-1,4-benzenedimethanamine] gave a 50% inhibitory concentration (IC50) of 1200 nM.
`CC(C)CCNCc1ccc(CNCCOc2ccc(C#Cc3ccc(Cl)cc3)cc2)cc1` [Compound 5, N^1-[2-[4-[(4-chlorophenyl)ethynyl]phenoxy]ethyl]-N^4-(3-methylbutyl)-1,4-benzenedimethanamine] showed an IC50 of 2170 nM.
The result for `Cc1cc(C#Cc2ccc(Cl)cc2)ccc1OCCNCc1ccc(CNCCC(C)C)cc1` [Compound 6, N^1-[2-[4-[(4-chlorophenyl)ethynyl]-2-methylphenoxy]ethyl]-N^4-(3-methylbutyl)-1,4-benzenedimethanamine] reads 2280 nM; that for `CN(C)CCCNCc1ccc(CNCCOc2ccc(C#Cc3ccc(Cl)cc3)cc2)cc1` [Compound 7, N^1-[2-[4-[(4-chlorophenyl)ethynyl]phenoxy]ethyl]-N^4-[3-(dimethylamino)propyl]-1,4-benzenedimethanamine], 770 nM; that for `Cc1cc(C#Cc2ccc(Cl)cc2)ccc1OCCNCc1ccc(CNCc2ccccc2)cc1` [Compound 8, N^1-[2-[4-[(4-chlorophenyl)ethynyl]-2-methylphenoxy]ethyl]-N^4-(phenylmethyl)-1,4-benzenedimethanamine], 3240 nM.
Regarding `CCCCCCCNCc1ccc(CNCCOc2ccc(C#Cc3ccc(Cl)cc3)cc2C)cc1` [Compound 9, N^1-[2-[4-[(4-chlorophenyl)ethynyl]-2-methylphenoxy]ethyl]-N^4-heptyl-1,4-benzenedimethanamine], the 50% inhibitory concentration (IC50) is 6660 nM.
`Cc1cc(C#Cc2ccc(Cl)cc2)ccc1OCCNCc1ccc(CNCCCc2ccccc2)cc1` [Compound 10, N^1-[2-[4-[(4-chlorophenyl)ethynyl]-2-methylphenoxy]ethyl]-N^4-(3-phenylpropyl)-1,4-benzenedimethanamine] came in with a concentration for half-maximal inhibition (IC50) of 8340 nM.
`CCCCCCNCc1ccc(CNCCOc2ccc(C#Cc3ccc(Cl)cc3)cc2C)cc1` [Compound 12, N^1-[2-[4-[(4-chlorophenyl)ethynyl]-2-methylphenoxy]ethyl]-N^4-hexyl-1,4-benzenedimethanamine] gave a half-maximal inhibitory concentration (IC50) of 11100 nM.
`Cc1cc(C#Cc2ccc(Cl)cc2)ccc1OCCNCc1ccc(CNCCN2CCCC2)cc1` [Compound 14, N^1-[2-[4-[(4-chlorophenyl)ethynyl]-2-methylphenoxy]ethyl]-N^4-[2-(1-pyrrolidinyl)ethyl]-1,4-benzenedimethanamine] showed an IC50 of 2350 nM.
Regarding `Cc1cc(C#Cc2ccc(Cl)cc2)ccc1OCCNCc1ccc(CNCCCN2CCOCC2)cc1` [Compound 15, N^1-[2-[4-[(4-chlorophenyl)ethynyl]-2-methylphenoxy]ethyl]-N^4-[3-(4-morpholinyl)propyl]-1,4-benzenedimethanamine], half-maximal inhibition (IC50) was put at 1610 nM.
Take `Cc1cc(C#Cc2ccc(Cl)cc2)ccc1OCCNCc1ccc(CNCCN2CCOCC2)cc1` [Compound 16, N^1-[2-[4-[(4-chlorophenyl)ethynyl]-2-methylphenoxy]ethyl]-N^4-[2-(4-morpholinyl)ethyl]-1,4-benzenedimethanamine]: 2660 nM corresponded to half-maximal inhibition (IC50).
